Experimental data taken from US20230146533A1, “KERATIN BD-10, PREPARATION METHOD THEREFOR AND PHARMACEUTICAL COMPOSITION AND USE THEREOF” (INSTITUTE OF MATERIA MEDICA, CHINESE ACADEMY OF MEDICAL …, priority 2019, published 2023).
Structures can show the parent of a compound that is named as a salt. Marks after values point to notes of the source that are not given here.

What was measured:
[1] = system: lipopolysaccharide (LPS) induced fever in SD rats; assay: Lipopolysaccharide (LPS) induced fever model in SD rats; format: in vivo; settings: aspirin 300 mg/kg oral
Protocol: Animals: 230-260 grams of male SD rats; Drugs: lipopolysaccharide (LPS, SIGMA L-2880), aspirin (SIGMA A2093), protein BD-10; Instruments: electronic balance (SARTORIUS BP121S type), electronic clinical thermometer (CITIZEN CT-513W type).
Method: the method of intraperitoneal injection of Lipopolysaccharide to replicate rat fever model.
(§1) Preparation of experimental animals: After the experimental animals adapt to the experimental environment (temperature 22° C.±2° C., relative humidity 50%±2%) for 1 day. Pre-adaptation to measure rectal temperature at 8:00 and 15:00, rats were fasted and water was taken freely 12 h before experiment, and let the animal to empty its feces before measuring the rectal temperature. Apply petroleum jelly to the electronic thermometer probe before each temperature measurement. Insert the rat rectum 2 cm (can be marked at 2 cm to ensure that the depth of each insertion is consistent), and record the body temperature after the reading is stable.
Intraperitoneal injection of lipopolysaccharide to replicate rat fever model: The body temperature of the rats was measured before modeling. Qualified rats with a body temperature of 36.2-37.3° C. were selected and randomly divided into groups with 8 rats in each group. After oral administration of aspirin and different doses of protein BD-10, lipopolysaccharide (20 μg/kg, 2 ml/kg) was injected intraperitoneally immediately, and the normal control group was injected intraperitoneally with an equal volume of normal saline. The body temperatures of the rats were monitored after 2 hours for a total of 8 hours.
(§2) According to the body temperature measured at each time point on the day of the experiment, calculate the mean, standard deviation and standard error of the body temperature of each group of rats. The data of each group was compared with TTEST, and P<0.05 was considered as a significant difference.

[2] = system: acetic acid writhing of ICR mice; assay: Acetic acid writhing test in ICR mice; format: in vivo
Protocol: Animals: male ICR mice; Drugs and reagents: aspirin, physiological saline, glacial acetic acid, protein BD-10. Experiment grouping: • Model group; • Aspirin 300 mg/kg group; • Protein BD-10, 50 mg/kg group, 200 mg/kg group.
One day after the experimental animals adapt to the environment, Aspirin 300 mg/kg, protein BD-10 50 mg/kg, 200 mg/kg were given orally one hour in advance, and the administration volume was 10 ml/kg; Then, 0.6% acetic acid solution was injected intraperitoneally, and the incubation period (seconds) and frequency of writhing in the animal was observed within 15 minutes.
Calculate the mean and standard error of the data in each group. Compared with the model group by TTEST, P<0.05 was considered as statistically different.

[3] = system: yeast-induced fever model in rats; assay: Yeast-induced fever model in SD rats; format: in vivo; settings: aspirin 300 mg/kg oral
Protocol: Animals: 230-260 grams of male SD rats; Medicines: yeast (OXOID LP0021), aspirin (SIGMA A2093), protein BD-10; Instruments: electronic balance (SARTORIUS BP121S type), electronic clinical thermometer (CITIZEN CT-513W type). Experiment grouping: • Normal control group; • Model group: yeast fever model; • Positive control group: Aspirin 300 mg/kg group; • Protein BD-10, 10 mg/kg group, 50 mg/kg group.
as §1
Subcutaneous injection of dry yeast to replicate rat fever model: The body temperature of the rats was measured before modeling. Qualified rats with a body temperature of 36.2-37.3° C. were selected and randomly divided into groups with 8 rats in each group. After oral administration of aspirin and different doses of protein BD-10, 20% yeast suspension (10 ml/kg) was injected subcutaneously immediately, and the normal control group was injected intraperitoneally with an equal volume of normal saline. The body temperatures of the rats were monitored after 2 hours for a total of 8 hours.
as §2

[4] = system: mice cough induced by ammonia water; assay: Antitussive test, cough induced by ammonia water in mice; format: in vivo, ICR mice
Protocol: Animals: male ICR mice; Drugs and reagents: dextromethorphan hydrobromide, ammonia water, 0.2% CMC-Na, protein BD-10; Apparatus: Compressed nebulizer (403T type), balance (XS105DU type). Experiment grouping: • Solvent control group; • Dextromethorphan 15 mg/kg group; • Protein BD-10, 20 mg/kg group, 50 mg/kg group.
Dextromethorphan and different doses of protein BD-10 (administration volume 10 ml/kg) were given orally in groups, and the solvent control group was given the same volume of distilled water. One hour later, mice were put into a sealed box and atomized 10% ammonia water for 10 seconds, and then observed and recorded the incubation period of cough in mice and the number of coughs in 2 minutes.
Record the time point of oral administration, the time point of atomization experiment, the incubation period of mice cough and the number of coughs within 2 minutes, respectively. The incubation period of cough refers to the number of seconds from the start of the atomization of ammonia to the occurrence of cough. The performance of coughing in mice is based on contraction of their abdominal muscles (breast contraction) and opening their mouths at the same time. Calculate the mean and standard error of each group of data, and use TTEST to compare the model group with other groups, and P<0.05 is considered as a significant difference.

[5] = system: PLO-induced epilepsy in mice; assay: Pilocarpine (PLO) induced convulsive epilepsy in mice; format: in vivo, ICR mice; design: mortality rate: unit not given here; settings: Diazepam 2 mg/kg, PLO 225 mg/kg i.p.
Protocol: Animals: male ICR mice; Drugs: Pilocarpine HCl (PLO, pilocarpine, pilocarpine hydrochloride), Diazepam (diazepam tablets), protein BD-10.
Experiment grouping: • Model group: • Diazepam 2 mg/kg group; • Protein BD-10, 50 mg/kg group, 200 mg/kg group.
The drug was administered once in the afternoon the day before modeling, PLO-225 mg/kg (modeling agent) was injected intraperitoneally 1 hour after the test drug was administered intragastrically on the day of modeling. And positive drug can be administered once 20 minutes before modeling. Observe for 30 minutes after PLO injection.
Observation indicators: (1)Seizure situation: the time of seizures from Grade II to Grade IV; (2)the time to death.
(§3) Seizure grade: Refer to Racine grading standard: Grade 0: No response; Grade I: manifested as twitching of facial muscles or the corners of the mouth; Grade II: can nod; Grade III: twitching of one limb; Grade IV: rigidity or body twitching; Grade V: generalized epilepsy (generalized tonic seizures).
Count the number of Grade IV seizures and deaths in each group of mice in the experiment; Grade II, III and IV incubation period. […] Chi-square test was used for statistics of the number of cases. The mean value and standard error of the incubation period were calculated, and TTEST was used to compare the model group with other groups. P<0.05 was considered as a significant difference.

[6] = system: PTZ-induced epilepsy in mice; assay: Pentylenetetrazole (PTZ) induced epilepsy in mice; format: in vivo, ICR mice; settings: Retigabine 60 mg/kg, PTZ 65 mg/kg i.p.
Protocol: Medicines: Pentylenetetrazol (PTZ), Retigabine, Protein BD-10.
Experiment grouping: • Model group; • Retigabine 60 mg/kg group; • Protein BD-10, 50 mg/kg group, 200 mg/kg group;
The drug was administered once in the afternoon the day before modeling, On the day of modeling, PTZ-65 mg/kg (modeling agent) was injected intraperitoneal 1 hour after the test drug was administered intragastrically, and the positive drug can be administered once half an hour before modeling. Continue to observe for 15 minutes after injection of PTZ.
Observation index: (1)Seizure situation: the time of seizures from Grade III to Grade VI; (2)Death situation
as §3
Count the cases of seizures and deaths in each group of mice in the experiment; Grade III and IV incubation period. The incubation period of mice that have not attacked to Grade IV is recorded as the maximum of 900 seconds. Chi-square test was used for statistics of the number of cases. Calculate the mean and standard error of the incubation period. Use TTEST to compare the model group with other groups, and P<0.05 is considered as a significant difference.

[7] = 2, 4, 6 and 8 hours after modeling, vs model group P<0.05
[8] = aspirin 300 mg/kg oral one hour before 0.6% acetic acid i.p., observed within 15 minutes
[9] = 20% yeast suspension 10 ml/kg s.c., SD rats

## CC(=O)Oc1ccccc1C(=O)O [aspirin, reference compound]
[1]; [7]
  Effect on body temperature of model rats (in words): can effectively inhibit the increase in body temperature
[1]; LPS 20 μg/kg i.p., SD rats
  Body temperature 2 hours after modeling: 36.8 ± 0.1 °C
  Body temperature 4 hours after modeling: 36.9 ± 0.2 °C
  Body temperature 6 hours after modeling: 36.8 ± 0.2 °C
  Body temperature 8 hours after modeling: 36.9 ± 0.1 °C
[2]; Aspirin 300 mg/kg, vs model group P<0.05
  Effect on writhing incubation period and times of writhing (in words): can significantly delay the incubation period of writhing and reduce the times of writhing
[2]; [8]
  Frequency of writhing: 15.2 ± 2.9 times
  Writhing incubation period: 290.3 ± 37.0 s
[3]; [7]
  Effect on body temperature of model rats (in words): can effectively inhibit the increase in body temperature
[3]; [9]
  Body temperature 2 hours after modeling: 37.0 ± 0.1 °C
  Body temperature 4 hours after modeling: 37.0 ± 0.1 °C
  Body temperature 6 hours after modeling: 37.0 ± 0.1 °C
  Body temperature 8 hours after modeling: 37.0 ± 0.1 °C

## COc1ccc2c(c1)[C@]13CCCC[C@@H]1[C@H](C2)N(C)CC3 [Dextromethorphan, dextromethorphan hydrobromide, reference compound]
[4]; Dextromethorphan 15 mg/kg oral, 10% ammonia water atomized 10 seconds one hour later, X ± SEM
  Incubation period (cough): 38.4 ± 4.5 s
[4]; Dextromethorphan 15 mg/kg oral, 10% ammonia water atomized 10 seconds one hour later, coughs within 2 minutes, X ± SEM
  Number of coughs: 34.0 ± 2.9
[4]; dextromethorphan 15 mg/kg group, vs solvent control group P<0.05
  Effect on incubation period and number of coughs (in words): significant improvement

## CN1C(=O)CN=C(c2ccccc2)c2cc(Cl)ccc21 [Diazepam, reference compound]
[5]; 10 mice
  Grade IV seizure rate: 0** %
  mortality rate: 0
[5]; mean ± SEM
  Grade II seizure incubation period: 109 ± 8 s
  Grade III seizure incubation period: 182 ± 14 s
[5]; mean ± SEM, mice not reaching Grade IV recorded as maximum 1800 seconds
  Grade IV seizure incubation period: 1800 ± 0 s
[5]; of 10 mice
  Cases of deaths: 0
[5]; of 10 mice, 30 minutes observation
  Cases of Grade IV: 0**

## CCOC(=O)Nc1ccc(NCc2ccc(F)cc2)cc1N [Retigabine, reference compound]
[6]; 10 mice
  Grade IV seizure rate: 20%**
  mortality rate: 0%
[6]; mean ± SEM
  Grade III seizure incubation period: 83 ± 7 s
[6]; mean ± SEM, mice not reaching Grade IV recorded as maximum 900 seconds
  Grade IV seizure incubation period: 745 ± 103 s
[6]; of 10 mice
  Cases of deaths: 0
[6]; of 10 mice, 15 minutes observation
  Cases of Grade IV: 2**
